Results as given in US20230092389A1, “UNIT DOSES, AEROSOLS, KITS, AND METHODS FOR TREATING HEART CONDITIONS BY PULMONARY ADMINISTRATION” (InCarda Therapeutics, Inc., priority 2017, published 2023).
Values joined by “and” are separate entries in the source; they are usually repeats but may differ in a detail not shown here. Equal values may be shown once.

Columns and labels:
healthy volunteers [1] = conditions: in vivo
Description: 3 cohorts of subjects, in total 34 healthy adult volunteers, were recruited for Part A study.
Part B was an open label non-randomized crossover in a cohort of 6 evaluable healthy adult volunteers.
Adverse events were monitored and recorded.

[2] = test system: pigs with induced atrial fibrillation; assay: ACh and burst-pacing induced AF duration, IT instillation, pigs (Example 5); assay type: in vivo, Yorkshire pigs; conditions: for AF duration, mean: n=3, no drug 11±0.6
Description: At one min after intrapericardial administration of ACh (1 ml of 100 mM), burst pacing was performed to initiate AF in the control cohort (FIG. 60). In the experimental cohort, after ACh and burst-pacing-induced AF, a stable period of 2 min of AF was allowed (FIG. 60). […] Table 12; FIG. 61).

healthy volunteers [3] = assay: Phase 1 (FLE-001) pharmacodynamics, ECG intervals; assay type: in vivo, human; conditions: for magnitude of QRS prolongation: 1 min post-inhalation; for magnitude of QRS prolongation / maximal QRS interval prolongation: post-hoc population; for prolongation in PR interval duration: Cohort 3, 60 mg eTLD
Description: The ECG recordings included: 1) Continuous real-time ECG telemetry for observation of patient safety starting at 12 hours pre-dose and continuing for 12 hours post-dose, 2) 12-lead ECGs for immediate review by medical staff to ascertain the safety of the procedures and drug administration were recorded at pre-specified (or any time as needed) before dosing (pre-dose) and after dosing (post-dose), and 3) continuous 12-lead ECG (cECG, iCardiac Holter monitoring) was recorded for 24 hours, starting 1 hour prior to dosing and up to 24 hours post dosing.

remaining study-drug related events (cough, dysphonia, dyspnoea, oral hypoesthesia, chest discomfort) (healthy volunteers [1]; human, po): occurred once in 1 subject each
Structure (SMILES): O=C(NCC1CCCCN1)c1cc(OCC(F)(F)F)ccc1OCC(F)(F)F (centres unmarked) [flecainide]
Number of Subjects with at least one Moderate or Severe TEAE (healthy volunteers [1]; human, iv, 2 mg/kg): 2 (29) n (%) | Number of Subjects with at least one Related TEAE (healthy volunteers [1]; human, iv, 2 mg/kg): 7 (100) n (%) | Number of Subjects with at least one Related, Moderate or Severe TEAE (healthy volunteers [1]; human, iv, 2 mg/kg): 2 (29) n (%) | Number of Subjects with at least one SAE (healthy volunteers [1]; human, iv, 2 mg/kg): 0 n (%) | Number of Subjects with at least one TEAE (healthy volunteers [1]; human, iv, 2 mg/kg): 7 (100) n (%) | Number of Treatment-Emergent Adverse Events (healthy volunteers [1]; human, iv, 2 mg/kg): 49 | TEAE: Application site coldness (healthy volunteers [1]; human, iv, 2 mg/kg): 2 (29) [2] n (%) [events] | TEAE: Catheter site pain (healthy volunteers [1]; human, iv, 2 mg/kg): 2 (29) [2] n (%) [events] | TEAE: Chest discomfort (healthy volunteers [1]; human, iv, 2 mg/kg): 1 (14) [3] n (%) [events] | TEAE: Dizziness (healthy volunteers [1]; human, iv, 2 mg/kg): 6 (86) [6] n (%) [events] | TEAE: Fatigue (healthy volunteers [1]; human, iv, 2 mg/kg): 2 (29) [2] n (%) [events] | TEAE: Gastrointestinal disorders (healthy volunteers [1]; human, iv, 2 mg/kg): 5 (71) [6] n (%) [events] | TEAE: General disorders and administration site conditions (healthy volunteers [1]; human, iv, 2 mg/kg): 4 (57) [13] n (%) [events] | TEAE: Headache (healthy volunteers [1]; human, iv, 2 mg/kg): 5 (71) [6] n (%) [events] | TEAE: Nervous system disorders (healthy volunteers [1]; human, iv, 2 mg/kg): 7 (100) [13] n (%) [events] | TEAE: Peripheral coldness (healthy volunteers [1]; human, iv, 2 mg/kg): 2 (29) [3] n (%) [events] | TEAE: Respiratory, thoracic and mediastinal disorders (healthy volunteers [1]; human, iv, 2 mg/kg): 2 (29) [3] n (%) [events] | TEAE: Vascular disorders (healthy volunteers [1]; human, iv, 2 mg/kg): 3 (43) [4] n (%) [events] | fewer TEAEs with IH than IV (healthy volunteers [1]; human, iv, 2 mg/kg): 4 fold | AEs occurring more frequently than with placebo (healthy volunteers [1]): oropharyngeal discomfort, shortness of breath (dyspnoea), cough and dry mouth | dose dependence of incidence of AEs (healthy volunteers [1]): appears not to be dose-dependent | intensity of TEAEs (healthy volunteers [1]): mild in intensity | serious adverse events (healthy volunteers [1]): No serious adverse events were reported | tolerability of inhalation (healthy volunteers [1]): well tolerated, and no subject interrupted the inhalation | recurrence of AF after restoration of sinus rhythm ([2]; 30-min window of observation): no recurrence of AF occurred | reduction in AF duration from the untreated condition ([2]; IT 1.5 mg/kg): 73% | AF duration, mean ([2]; IT 1.5 mg/kg): 3 ± 0.2 min | AF duration, mean ([2]; IT 1.5 mg/kg, listed as Flecainide): 3 min | AF duration, individual pigs ([2]; IT 1.5 mg/kg, pigs 239, 236, 238, no drug 12, 10, 12): 3 min (2×) and 4 min | magnitude of QRS prolongation (healthy volunteers [3]; 20 mg eTLD): 3.0 ms | magnitude of QRS prolongation (healthy volunteers [3]; 40 mg eTLD): 8.2 ms | magnitude of QRS prolongation (healthy volunteers [3]; 60 mg eTLD): 16 ms | difference of QRS interval duration from pre-dose baseline (healthy volunteers [3]; 2 to 24 hours post-inhalation of 30 mg eTLD, baseline 78±2 msec): < 2 ms | PR interval (healthy volunteers [3]; 8 and 24 hours post-IV infusion): fully returned to pre-drug baseline | QRS interval duration (healthy volunteers [3]; 30 min after completion of inhalation, 20-60 mg eTLD): returned to near pre-dose levels | PR interval longer than pre-drug baseline (healthy volunteers [3]; 2 hours and beyond post-oral IH flecainide): approximately 2 msec | PR interval (healthy volunteers [3]; 2 hours and beyond post-oral IH flecainide, baseline 158.5 msec): 160 ms | QRS interval duration longer than baseline (healthy volunteers [3]; 2 hours following IV infusion, baseline 78±2 msec): 12.5 ms | PR interval longer than pre-drug baseline (healthy volunteers [3]; 2 hours post-IV infusion, baseline 161±3 msec): ~12 ms | QRS interval duration longer than baseline (healthy volunteers [3]; 24 hours following IV infusion): ~7 ms | mean ΔPR (healthy volunteers [3]; Cohort 1, 20 mg eTLD, 1 minute post-dosing): -6 ms | mean ΔPR (healthy volunteers [3]; Cohort 1, 20 mg eTLD, 3 minutes post-dosing): -4.5 ms | mean ΔPR (healthy volunteers [3]; Cohort 1, 20 mg eTLD, 10 minutes to 4 hours after dosing): smaller than −3.0 msec | mean ΔQRS (healthy volunteers [3]; Cohort 1, 20 mg eTLD, between 1 and 3 minutes after end of inhalation): small increase | QRS duration (healthy volunteers [3]; Cohort 2, 40 mg eTLD, between 1 and 3 minutes post-dosing): transient increase | time of maximal increase in QRS interval duration (healthy volunteers [3]; Cohort 2, 40 mg eTLD, majority of subjects): 1 min | prolongation in PR interval duration (healthy volunteers [3]; 1 to 5 min): ~5 ms | prolongation in PR interval duration (healthy volunteers [3]; 10 and 15 minutes): up to 12 msec | non-specific intraventricular conduction delay (healthy volunteers [3]; Cohort 5, IV infusion): 3 of 6 subjects | maximal increase in QRS interval duration, mean (±SEM) (healthy volunteers [3]; Cohort 5, IV infusion 2 mg/kg): 34.2 ± 2.4 ms | duration of QRS widening (healthy volunteers [3]; Cohort 5, inhalation): 15 to 30 min | maximal increase in QRS interval duration, mean (±SEM) (healthy volunteers [3]; Cohort 5, inhalation 30 mg eTLD): 12.4 ± 2.6 ms | duration of QRS widening (healthy volunteers [3]; Cohort 5, intravenous): > 60 min | non-specific intraventricular conduction delay (healthy volunteers [3]; Cohort 5, oral inhalation eTLD 30 mg): not observed | duration of intraventricular conduction delay (healthy volunteers [3]; IV 2 mg/kg, 10 min infusion (FIG. 34)): 5 to 10 min | maximal PR interval prolongation (healthy volunteers [3]; IV infusion 2 mg/kg): 25 ms | T-wave morphology (healthy volunteers [3]; IV infusion 2 mg/kg (FIG. 36)): T-wave notching | lower plasma concentration by inhalation for QRS prolongation of magnitude achieved by IV (6.2/2.7) (healthy volunteers [3]; Part B): 2.3 fold | maximal QRS interval prolongation (healthy volunteers [3]; eTLD 20 mg): 3.5±1.0 | smaller change in QRS interval duration, inhalation vs IV infusion (healthy volunteers [3]; eTLD 30 mg vs ~150 mg IV): 2.7 fold | maximal QRS interval prolongation (healthy volunteers [3]; eTLD 40 mg): 10±1.5 | maximal QRS interval prolongation (healthy volunteers [3]; eTLD 60 mg): 16±1.4 | PR interval (healthy volunteers [3]; end of IV infusion 2 mg/kg, 164±1 msec 45 min prior): 187 ± 6 ms | T-wave morphology (healthy volunteers [3]; inhalation 20, 30, 40 mg eTLD): No changes | lower plasma level following inhalation at similar ΔQRS (healthy volunteers [3]; inhalation vs 5 min into IV infusion): 2.6 fold | PR interval prolongation from start of inhalation (healthy volunteers [3]; inhaled 30 mg eTLD, 5 min after completion of inhalation): 12 ms | changes of PR interval duration (healthy volunteers [3]; inhaled 20 or 40 mg eTLD): Minimal or no changes | temporal relation between plasma concentration and ΔQRS (healthy volunteers [3]; non-steady state, IV and inhalation): changes in QRS interval duration lag those of the peripheral venous concentrations | maximal PR interval prolongation (healthy volunteers [3]; oral inhalation 30 mg eTLD): 12 ms | maximal decrease in QRS amplitude (average of several tracings) (healthy volunteers [3]; subject R222, 40 mg eTLD): ~480 μV | maximal increase in QRS duration (average of several tracings) (healthy volunteers [3]; subject R222, 40 mg eTLD): ~9 ms | increase in QRS duration (QRSd) (healthy volunteers [3]; subject R222, 40 mg eTLD, 1 minute post-dosing): 10 ms | decrease in amplitude of the R-wave (QRSa) (healthy volunteers [3]; subject R222, 40 mg eTLD, 3 min post-dosing): 400 μV
